Measured values: article PMC7440915, “Discovery of surrogate agonists for visceral fat Treg cells that modulate metabolic indices in vivo” (eLife, 2020)
Where no end group is shown, it is not given here.

How the values were obtained:
vTreg53 TCR = vTreg53 TCR tetramer staining of single peptide-A^b yeast clone; type: binding, murine; settings: 500 nM final tetramer concentration
Protocol: Figure 2. Identification of surrogate peptides recognized by the vTreg53 TCR. (A) The vTreg53 TCR was used to screen and isolate the peptide-MHC yeast display. vTreg53 TCR tetramer staining (500 nM of TCR-SA) together with c-Myc staining is shown for the naïve library and four consecutive rounds of selection. […] (C) Positional frequency representation from the deep sequencing of the third round of selection with vTreg53. (D) Positional frequency matrix based on the deep sequencing of the fourth round of the peptide-MHC yeast selection. […] Data shown are representative of at least two independent experiments. Figure 2—figure supplement 1. Evolution of peptide-Ab yeast display. […] TEXT PRINTED IN THE PICTURE: (B) Fat7: Fraction: 0.596 | (B) TMYKGPHAVAAFT: Fraction: 0.369 | (B) LMFKGPHAVAAFT: Fraction: 0.029 | (B) FTYKNPRPVAATG: Fraction: 0.006 | (B) Fat15: Fraction: 0.000 | (B) TMYKNPRPVAATG: Fraction: 0.000 | (B) TMYKNPRPVAATG: Fraction: 0.000 DOUBTS OF THE COPYIST ABOUT THIS PICTURE: Panel B: the Fraction values are shares of sequencing reads from a selection, so it is uncertain whether they count as a result for a substance. […]
Yeast were passaged in SDCAA and induced with SGCAA and selected with streptavidin (SA) - coated magnetic MACS beads (Miltenyi) coated with biotinylated TCR. […] Peptide-A^b surface expression was monitored with anti-c-myc (Cell Signaling) antibody staining. […]

endogenous Treg cells = assay: Endogenous Fat1562/A^b tetramer^+ Treg cells and scTCR-seq after immunization of wild-type B6 mice; type: in vivo, mouse
Text: We next investigated whether Fat1562 immunization of wild-type B6 mice would elicit expansion of particular Treg clones in VAT, and whether their TCRs would resemble the vTreg53 TCR. 16–20 week-old B6 mice were immunized with Fat1562 using the prime and boost scheme (Figure 4—figure supplement 1A), and the Fat1562-reactive CD4^+ T cells were characterized by staining with the Fat1562/A^b-PE tetramer. […] We then sorted individual Fat1562/A^b tetramer^+ Treg cells from the spleen and VAT of these 3 mice into 96-well plates, and determined the sequences of their TCR-β and TCR-α complementarity-determining region (CDR)3 s. […] Within each mouse, the Spl/LNs and VAT Treg clones had the same CDR3α and CDR3β. […] Therefore, although with some degree of variability, Fat1562 was able to expand an endogenous Treg population that highly resembled the original vTreg53 VAT-Treg clone.
Foxp3^+CD4^+ TCRβ^+ Fat1562/A^b-PE^+ Treg cells from VAT or pooled Spl/LN of 16–20 week-old Foxp3-GFP mice were first sorted in bulk before resorting as individual cells using a MoFlo (Beckman Coulter) into wells of 96-well PCR plates containing the reverse transcriptase reaction mix, and cDNA was prepared as described previously ([Burzyn et al., 2013]). Extreme caution was taken to minimize contamination of wells. […]

| Sequence | vTreg53 TCR-SA tetramer staining (vTreg53 TCR) | mice with detectable expansion of Fat1562/A^b tetramer^+ Treg population (endogenous Treg cells; out of the 10 mice immunized, Spl/LN and VAT, 16–20 week-old B6) | clonality of Fat1562/A^b tetramer^+ Treg population (endogenous Treg cells; three mice, scTCR-seq of CDR3α/β) |
| --- | --- | --- | --- |
| LMFKGPHAVQAVG [Fat7] | positive |  |  |
| TMYKNPRPMAATG [Fat1562] |  | three | almost entirely monoclonal |
